Data as given in PMC2000878, “Module structure of interphotoreceptor retinoid-binding protein (IRBP) may provide bases for its complex role in the visual cycle – structure/function study of Xenopus IRBP” (BMC Biochemistry, 2007).
Like-named read-outs stand apart in the source and are kept apart here.

Legend:
Test in all cases: Competitive fluorescence titration of all-trans retinol with 11-cis retinaldehyde
Type in all cases: binding
Xenopus IRBP Module 3 = target: T1, Xenopus IRBP Module 3 (Xenopus laevis, UniProt Q7SZI7); settings: protein 1.10 μM
T1 construct: cDNAs corresponding to the full-length IRBP, module 1, and module 2 were expressed in pThioHis; modules 3 and 4 were expressed in pTrxFus; made in house; host or cells: E. coli GI724 / GI698 (pTrxFus)
T1 sequence (Q7SZI7 616-912): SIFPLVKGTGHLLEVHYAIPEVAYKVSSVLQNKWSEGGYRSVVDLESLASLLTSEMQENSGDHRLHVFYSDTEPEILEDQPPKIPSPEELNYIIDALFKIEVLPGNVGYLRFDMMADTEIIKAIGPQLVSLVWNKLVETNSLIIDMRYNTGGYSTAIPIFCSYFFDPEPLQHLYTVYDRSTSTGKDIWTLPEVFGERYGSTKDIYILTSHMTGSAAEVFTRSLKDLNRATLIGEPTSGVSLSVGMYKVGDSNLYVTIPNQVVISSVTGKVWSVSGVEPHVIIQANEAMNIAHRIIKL
Experimental: (§1) Figure 9 Competitive inhibition by 11-cis retinaldehyde of all-trans retinol binding to the individual modules of Xenopus IRBP. Binding of all-trans retinol to the individual modules was measured by fluorescence enhancement in the presence of varying amounts of 11-cis retinal. Panels A through D correspond to modules 1 through 4 respectively. […] Three dimensional nonlinear regression was used to determine the number of binding sites, the dissociation constant of all-trans retinol, and the dissociation constant of 11-cis retinal for each of the individual modules. The concentrations of the proteins used in the titrations were as follows: module 1 (0.99 μM; panel A); module 2 (1.10 μM; panel B); module 3 (1.10 μM; panel C); module 4 (1.00 μM; panel D).
(§2) To describe the displacement of all-trans retinol by 11-cis retinaldehyde, Equation 1 was modified to take into account the competition between the two ligands. The apparent dissociation constants for all-trans retinol measured under these conditions is related to the dissociation constant of 11-cis retinaldehyde through the following expression.
(§3) Kapp=Kdall−trans[1+Rt11−cis/Kd11−cis] MathType@MTEF@5@5@+=feaafiart1ev1aaatCvAUfKttLearuWrP9MDH5MBPbIqV92AaeXatLxBI9gBaebbnrfifHhDYfgasaacH8akY=wiFfYdH8Gipec8Eeeu0xXdbba9frFj0=OqFfea0dXdd9vqai=hGuQ8kuc9pgc9s8qqaq=dirpe0xb9q8qiLsFr0=vr0=vr0dc8meaabaqaciaacaGaaeqabaqabeGadaaakeaacqWGlbWsdaWgaaWcbaGaemyyaeMaemiCaaNaemiCaahabeaakiabg2da9iabdUealnaaDaaaleaacqWGKbazaeaacqWGHbqycqWGSbaBcqWGSbaBcqGHsislcqWG0baDcqWGYbGCcqWGHbqycqWGUbGBcqWGZbWCaaGcdaWadaqaaiabigdaXiabgUcaRmaalaaabaGaemOuai1aa0baaSqaaiabdsha0bqaaiabigdaXiabigdaXiabgkHiTiabdogaJjabdMgaPjabdohaZbaaaOqaaiabdUealnaaDaaaleaacqWGKbazaeaacqaIXaqmcqaIXaqmcqGHsislcqWGJbWycqWGPbqAcqWGZbWCaaaaaaGccaGLBbGaayzxaaaaaa@58DE@
(§4) The origin of the above expression is discussed in reviews dealing with competition assays. Substitution of equation 2 into equation 1 yields the following expression.
(§5) Fenh=C1+C2[Rtall−trans−(Rtall−trans+NPt+Kdall−trans+Kdall−transRt11−cis/Kd11−cis)^2−4NPtRtall−trans] MathType@MTEF@5@5@+=feaafiart1ev1aaatCvAUfKttLearuWrP9MDH5MBPbIqV92AaeXatLxBI9gBaebbnrfifHhDYfgasaacH8akY=wiFfYdH8Gipec8Eeeu0xXdbba9frFj0=OqFfea0dXdd9vqai=hGuQ8kuc9pgc9s8qqaq=dirpe0xb9q8qiLsFr0=vr0=vr0dc8meaabaqaciaacaGaaeqabaqabeGadaaakeaacqWGgbGrdaWgaaWcbaGaemyzauMaemOBa4MaemiAaGgabeaakiabg2da9iabdoeadnaaBaaaleaacqaIXaqmaeqaaOGaey4kaSIaem4qam0aaSbaaSqaaiabikdaYaqabaGcdaWadaqaaiabdkfasnaaDaaaleaacqWG0baDaeaacqWGHbqycqWGSbaBcqWGSbaBcqGHsislcqWG0baDcqWGYbGCcqWGHbqycqWGUbGBcqWGZbWCaaGccqGHsisldaGcaaqaamaabmaabaGaemOuai1aa0baaSqaaiabdsha0bqaaiabdggaHjabdYgaSjabdYgaSjabgkHiTiabdsha0jabdkhaYjabdggaHjabd6gaUjabdohaZbaakiabgUcaRiabd6eaojabdcfaqnaaBaaaleaacqWG0baDaeqaaOGaey4kaSIaem4saS0aa0baaSqaaiabdsgaKbqaaiabdggaHjabdYgaSjabdYgaSjabgkHiTiabdsha0jabdkhaYjabdggaHjabd6gaUjabdohaZbaakiabgUcaRmaalaaabaGaem4saS0aa0baaSqaaiabdsgaKbqaaiabdggaHjabdYgaSjabdYgaSjabgkHiTiabdsha0jabdkhaYjabdggaHjabd6gaUjabdohaZbaakiabdkfasnaaDaaaleaacqWG0baDaeaacqaIXaqmcqaIXaqmcqGHsislcqWGJbWycqWGPbqAcqWGZbWCaaaakeaacqWGlbWsdaqhaaWcbaGaemizaqgabaGaeGymaeJaeGymaeJaeyOeI0Iaem4yamMaemyAaKMaem4CamhaaaaaaOGaayjkaiaawMcaamaaCaaaleqabaGaeGOmaidaaOGaeyOeI0IaeGinaqJaemOta4Kaemiuaa1aaSbaaSqaaiabdsha0bqabaGccqWGsbGudaqhaaWcbaGaemiDaqhabaGaemyyaeMaemiBaWMaemiBaWMaeyOeI0IaemiDaqNaemOCaiNaemyyaeMaemOBa4Maem4CamhaaaqabaaakiaawUfacaGLDbaaaaa@A768@

Xenopus IRBP Module 1 = Xenopus IRBP Module 1 (Xenopus laevis, UniProt Q7SZI7); settings: protein 0.99 μM
Chain of Xenopus IRBP Module 1 (Q7SZI7 23-318): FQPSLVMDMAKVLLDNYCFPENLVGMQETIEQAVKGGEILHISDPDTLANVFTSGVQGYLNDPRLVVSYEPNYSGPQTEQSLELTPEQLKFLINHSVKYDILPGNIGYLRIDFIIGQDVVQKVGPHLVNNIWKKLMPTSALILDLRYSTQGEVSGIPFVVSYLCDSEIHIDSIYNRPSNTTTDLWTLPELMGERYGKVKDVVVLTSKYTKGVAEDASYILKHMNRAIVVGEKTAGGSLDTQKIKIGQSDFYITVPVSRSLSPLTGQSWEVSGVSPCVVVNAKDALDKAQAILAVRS
Experimental: as §1, §2, §3, §4, §5

Xenopus IRBP Module 4 = target: T2, Xenopus IRBP Module 4 (Xenopus laevis, UniProt Q7SZI7); settings: protein 1.00 μM
T2 construct: cDNAs corresponding to the full-length IRBP, module 1, and module 2 were expressed in pThioHis; modules 3 and 4 were expressed in pTrxFus; made in house; host or cells: E. coli GI724 / GI698 (pTrxFus)
T2 sequence (Q7SZI7 923-1219): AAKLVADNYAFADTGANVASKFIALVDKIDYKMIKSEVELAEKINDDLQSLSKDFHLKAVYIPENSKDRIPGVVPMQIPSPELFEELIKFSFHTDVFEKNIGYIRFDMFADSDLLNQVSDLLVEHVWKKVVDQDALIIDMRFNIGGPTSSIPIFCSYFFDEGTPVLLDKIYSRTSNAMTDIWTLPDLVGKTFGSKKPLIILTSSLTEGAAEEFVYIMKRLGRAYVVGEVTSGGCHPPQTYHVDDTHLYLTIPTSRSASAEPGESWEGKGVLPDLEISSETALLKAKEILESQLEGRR
Experimental: as §1, §2, §3, §4, §5

Xenopus IRBP Module 2 = target: T3, Xenopus IRBP Module 2 (Xenopus laevis, UniProt Q7SZI7)
T3 construct: cDNAs corresponding to the full-length IRBP, module 1, and module 2 were expressed in pThioHis; modules 3 and 4 were expressed in pTrxFus; made in house; host or cells: E. coli Top10 (pThioHis)
T3 sequence (Q7SZI7 319-617 limits assumed): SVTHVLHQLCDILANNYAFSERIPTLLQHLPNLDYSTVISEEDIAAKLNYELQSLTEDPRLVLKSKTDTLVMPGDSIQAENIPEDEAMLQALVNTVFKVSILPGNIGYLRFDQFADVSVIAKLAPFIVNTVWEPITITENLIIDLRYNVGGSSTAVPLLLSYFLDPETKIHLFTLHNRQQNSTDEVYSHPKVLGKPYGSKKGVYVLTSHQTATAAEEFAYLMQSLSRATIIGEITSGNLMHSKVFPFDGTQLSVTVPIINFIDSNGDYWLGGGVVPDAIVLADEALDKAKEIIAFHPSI
Experimental: as §1, §2, §3, §4, §5

[1] = competition with all-trans retinol, read-out: Kd 11-cis retinal
[2] = competition, in presence of 11-cis retinal, read-out: Kd All-trans retinol

SMILES | Kd (Xenopus IRBP Module 3; [1]) [nM] | Binding sites (N) (Xenopus IRBP Module 3; competition, shared sites) | Kd (Xenopus IRBP Module 1; [1]) [nM] | Binding sites (N) (Xenopus IRBP Module 1; competition, shared sites) | Kd (Xenopus IRBP Module 4; [1]) [nM] | Binding sites (N) (Xenopus IRBP Module 4; competition, shared sites) | Kd (Xenopus IRBP Module 2; competition with all-trans retinol, protein 1.10 μM, read-out: Kd 11-cis retinal) [nM] | Binding sites (N) (Xenopus IRBP Module 2; competition, shared sites, protein 1.10 μM) | Kd (Xenopus IRBP Module 3; [2]) [nM] | Kd (Xenopus IRBP Module 1; [2]) [nM] | Kd (Xenopus IRBP Module 4; [2]) [nM] | Ligand selectivity of module 2 (Xenopus IRBP Module 2; comparison of Kd for all-trans retinol and 11-cis retinaldehyde) | Kd (Xenopus IRBP Module 2; competition, in presence of 11-cis retinal, protein 1.10 μM, read-out: Kd All-trans retinol) [nM]
CC1=C(/C=C/C(C)=C/C=C/C(C)=C/C=O)C(C)(C)CCC1 [11-cis retinal] | 560 ± 110 | 1.90 ± 0.28 | 570 ± 110 | 1.29 ± 0.24 | 290 ± 50 | 1.47 ± 0.18 | 280 ± 130 | 1.22 ± 0.10 |  |  |  |  | 
CC1=C(/C=C/C(C)=C/C=C/C(C)=C/CO)C(C)(C)CCC1 [all-trans retinol] |  |  |  |  |  |  |  |  | 840 ± 220 | 670 ± 170 | 410 ± 90 | selectivity for all-trans retinol over 11-cis retinaldehyde | 74 ± 37
